The target in assay [1] is T1, BRI1-GFP and BRK1-myc (Arabidopsis thaliana, UniProt O22476).
T1 construct: expressed in transfected cells; host or cells: transgenic Arabidopsis plants (rosette leaves, microsomal fraction)
T1 sequence (O22476 24-1196): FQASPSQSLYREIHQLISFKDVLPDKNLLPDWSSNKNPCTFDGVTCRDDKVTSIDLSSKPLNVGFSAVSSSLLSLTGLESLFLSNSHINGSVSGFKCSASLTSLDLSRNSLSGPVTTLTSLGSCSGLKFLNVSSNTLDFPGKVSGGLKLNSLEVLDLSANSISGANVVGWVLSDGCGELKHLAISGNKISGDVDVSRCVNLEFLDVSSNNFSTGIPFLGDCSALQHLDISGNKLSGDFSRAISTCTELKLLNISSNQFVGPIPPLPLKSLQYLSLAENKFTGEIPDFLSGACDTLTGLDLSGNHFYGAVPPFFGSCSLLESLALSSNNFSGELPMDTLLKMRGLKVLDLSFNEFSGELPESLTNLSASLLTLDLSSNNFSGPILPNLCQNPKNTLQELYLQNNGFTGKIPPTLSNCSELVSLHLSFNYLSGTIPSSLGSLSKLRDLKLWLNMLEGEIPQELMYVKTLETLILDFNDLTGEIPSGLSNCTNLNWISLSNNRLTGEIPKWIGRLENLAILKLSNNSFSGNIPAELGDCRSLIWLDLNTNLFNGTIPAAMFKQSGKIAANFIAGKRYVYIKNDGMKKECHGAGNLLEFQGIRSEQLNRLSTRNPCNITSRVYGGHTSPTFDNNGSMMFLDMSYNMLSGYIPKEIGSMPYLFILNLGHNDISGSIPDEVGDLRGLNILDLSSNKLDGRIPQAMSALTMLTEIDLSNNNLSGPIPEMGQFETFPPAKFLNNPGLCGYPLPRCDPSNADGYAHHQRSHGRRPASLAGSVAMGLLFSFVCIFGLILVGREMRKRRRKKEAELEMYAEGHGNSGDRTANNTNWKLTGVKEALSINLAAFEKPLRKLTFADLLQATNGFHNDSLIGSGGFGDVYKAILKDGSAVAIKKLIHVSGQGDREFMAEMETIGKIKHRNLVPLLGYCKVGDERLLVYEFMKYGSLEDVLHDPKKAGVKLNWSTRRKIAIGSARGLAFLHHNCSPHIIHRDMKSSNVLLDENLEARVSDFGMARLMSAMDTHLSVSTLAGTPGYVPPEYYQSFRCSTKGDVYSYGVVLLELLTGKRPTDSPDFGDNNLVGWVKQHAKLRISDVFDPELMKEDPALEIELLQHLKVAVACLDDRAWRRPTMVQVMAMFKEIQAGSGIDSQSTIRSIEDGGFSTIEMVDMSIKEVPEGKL
T1 sequence (Q94F62 26-615 partner): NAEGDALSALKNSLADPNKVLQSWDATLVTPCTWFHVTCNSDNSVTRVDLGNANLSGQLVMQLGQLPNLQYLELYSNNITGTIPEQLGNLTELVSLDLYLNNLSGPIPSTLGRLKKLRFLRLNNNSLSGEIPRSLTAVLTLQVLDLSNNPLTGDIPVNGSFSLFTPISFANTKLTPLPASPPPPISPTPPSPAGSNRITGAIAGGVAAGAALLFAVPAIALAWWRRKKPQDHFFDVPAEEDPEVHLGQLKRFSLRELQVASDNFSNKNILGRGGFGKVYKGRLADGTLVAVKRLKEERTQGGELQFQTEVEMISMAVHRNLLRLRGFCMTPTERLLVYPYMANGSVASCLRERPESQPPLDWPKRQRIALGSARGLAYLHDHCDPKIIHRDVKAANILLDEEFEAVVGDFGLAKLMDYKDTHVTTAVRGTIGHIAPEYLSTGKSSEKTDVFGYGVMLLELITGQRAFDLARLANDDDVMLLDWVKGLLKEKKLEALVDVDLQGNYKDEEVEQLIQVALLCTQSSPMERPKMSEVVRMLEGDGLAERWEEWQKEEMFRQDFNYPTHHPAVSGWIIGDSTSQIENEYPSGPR
As to the kind of experiment: Co-immunoprecipitation of BRI1 with BRK1. Format: in vivo. As to conditions: 100 nM brassinolide for 30 min; microsomal proteins immunoprecipitated with anti-GFP antibodies; plants co-expressing BRK1-myc and BRI1-GFP (FIG. 2D). How it is done:
FIGS. 2A-2D show BRK1 is a substrate of BRI1. FIGS. 2A and 2B show BRI1 phosphorylates serine230 of BRK1 in vitro. […] YFP fluorescence images of N. benthamiana leaf epidermal cells co-transformed with the indicated constructs. […] Arabidopsis plants expressing BRK1-myc only (lanes 1 and 4) or co-expressing BRK1-myc and BRI1-GFP (lanes 2, 3, 5, 6) were treated with 100 nM brassinolide (BL+) or mock solution (BL−) for 30 min. Microsomal proteins (lanes 1 to 3) were immunprecipitated with anti-GFP antibodies (lanes 4 to 6), and the immunoblot was probed using anti-GFP antibodies or anti-myc antibodies.
All procedures were performed at 4° C. Rosette leaves of 3-week-old Arabidopsis plants were homogenized with mortar and pestle in the grinding buffer (20 mM HEPES, pH 7.5, 40 mM KCl, 250 mM sucrose, 5 mM MgCl2 and protein inhibitors) at a ratio of 3 mL buffer per gram of tissue. Homogenate was filtered through 2 layers of Miracloth (CalBiochem, La Jolla, Calif.), and centrifuged at 10,000 g for 10 minutes. The supernatant was further centrifuged at 100,000 g for 60 min to pellet the microsomal fraction. Microsomes were re-suspended in 0.5 mL grinding buffer and sonicated for 10 sec. Triton X-100 was added to a final concentration of 1%. After mixing, the extracts were centrifuged at 20,000 g for 10 min. […] Samples were analyzed by SDS-PAGE and immunoblotting.

Assay [2] concerns wild type plants. As to the kind of experiment: Hypocotyl and root growth assay. As to conditions: wild type plants grown in the light. Type of assay: in vivo, Arabidopsis thaliana. As to the method:
The det2-1 and bzr1-1D mutants are in Arabidopsis thaliana Columbia ecotype background, and bri1-5 is in the WS ecotype. For hypocotyl and root growth assay, seedlings were grown on vertical phytoagar plate containing ^1/2 MS medium and 1% sucrose (pH 5.7) in the dark for 4 days or under continuous light for 7 days. Confocal microscopy and BiFC analysis were performed according to Gampala et al. (Gampala et al., Dev Cell 13, 177 (August, 2007)).
Arabidopsis seeds were surface sterilized by first soaking in 70% ethanol plus 0.1% Triton X-100 for 15 min followed by soaking in 96% ethanol for another 10 mins. Sterilized seeds were air dried in the hood and sowed on agar plate of Murashige and Skoog (MS) medium or MS plate plus BRZ or Brassinolide. The seeds were incubated at 4° C. for 3 days to synchronize germination and then grown for 4 days in dark or 7 days under continuous light before taking pictures for measurement. For measurement of hypocotyls or root growth, the plates were first scanned using a image scanner at a resolution of 300 dpi, and the images were input into computer software Image J to measure the root or hypocotyl length.

Each structure is given as a SMILES string.

Take `CC(C)[C@H](C)[C@@H](O)[C@H](O)[C@@H](C)[C@H]1CC[C@H]2[C@@H]3COC(=O)[C@H]4C[C@H](O)[C@H](O)C[C@]4(C)[C@H]3CC[C@]12C` [Brassinolide]: the “amount of the co-immunoprecipitated BRK1-myc” value in assay [1] is reported as 46 % of the untreated sample. In addition, in assay [2], the hypocotyl elongation entry is reported as “increases hypocotyl elongation” and the root growth entry is “inhibits root growth”.

These data come from patent US8541649B2, “Brassinosteroid regulated kinases (BRKs) that mediate brassinosteroid signal transduction and uses thereof” (priority 2008, dated 2013).
